Data as given in ChEMBL document CHEMBL1770138, “Synthesis and SAR of pyrimidine-based, non-nucleotide P2Y14 receptor antagonists” (Bioorg Med Chem Lett, 2011).

Assays:
in vivo [1] = settings: C57B6, mouse, po, 50 mg/kg
[2] = Drug uptake in plasma of C57B6 mouse after 24 hrs; type: ADME; settings: read-out: Drug uptake
in vivo [3] = settings: C57B6, mouse, iv, 5 mg/kg
in vivo [4] = settings: C57B6, mouse, iv, 5 mg/kg; remark: listed apart in the source
in vivo [5] = settings: C57B6, mouse
in vivo [6] = settings: C57B6, mouse, po, 50 mg/kg; remark: listed apart in the source

- bioavailability (in vivo [1]): 134%
- concentration at 24 h [2]: 400 nM
- clearance (in vivo [3]): 48 mL/min/kg
- Vd (in vivo [4]): 19 L/kg
- half-life (in vivo [5]): 11 h
- Cmax (in vivo [6]): 2400 nM
Structure (SMILES): CCc1cccc(NC(=O)N2CCc3nc(-c4ccc5c(c4)OCO5)nc(-c4ccccc4C)c3C2)c1
